# Data as given in ChEMBL document CHEMBL4680285, “Aminothiazolones as potent, selective and cell active inhibitors of the PIM kinase family” (Bioorg Med Chem, 2020).
# Assay: Half life in mouse liver microsomes
# Format: ADME, Microsome
row,Structure (SMILES),half-life [min]
1,O=C1N=C(N[C@H]2CC[C@H](O)CC2)S/C1=C\c1csc(-c2ccc(OC(F)(F)F)cc2)n1,781
2,O=C1NC(=S)S/C1=C\c1csc(-c2ccc(C(F)(F)F)cc2)n1,49
3,O=C1N=C(NCC2(CO)CC2)S/C1=C\c1csc(-c2ccc(OC(F)(F)F)cc2)n1,> 120
4,O=C1N=C(NCC2(CO)CCC2)S/C1=C\c1csc(-c2ccc(OC(F)(F)F)cc2)n1,> 120
5,N=C1NC(=O)/C(=C/c2csc(-c3ccc(C(F)(F)F)cc3)n2)S1,> 100
6,CC(C)(CO)CNC1=NC(=O)/C(=C/c2csc(-c3cccc(OC(F)(F)F)c3)n2)S1,> 120
7,CC(C)(CO)CNC1=NC(=O)/C(=C/c2csc(-c3ccc(OC(F)(F)F)cc3)n2)S1,> 120
8,CN1CCC(CNC2=NC(=O)/C(=C/c3csc(-c4cccc(N(C)S(C)(=O)=O)c4)n3)S2)CC1,27.5
9,CN1CCC(CNC2=NC(=O)/C(=C/c3ccc(-c4cccc(Cl)c4)o3)S2)CC1,> 120
10,CN(C)CCNC1=NC(=O)/C(=C/c2csc(-c3ccc(OC(F)(F)F)cc3)n2)S1,> 120
11,CN(c1cccc(-c2nc(/C=C3\SC(NCC(C)(C)CO)=NC3=O)cs2)c1)S(C)(=O)=O,5.68
12,CN1CCC(CNC2=NC(=O)/C(=C/c3csc(-c4ccc(C(F)(F)F)cc4)n3)S2)CC1,> 120
13,CN(C)S(=O)(=O)Nc1cccc(-c2nc(/C=C3\SC(NCC(C)(C)CO)=NC3=O)cs2)c1,7.56

# Assay: Half life in mouse liver S9 fraction
# Format: ADME, subcellular
row,Structure (SMILES),half-life [min]
1,O=C1N=C(NCC2CCN(CCO)CC2)S/C1=C\c1csc(-c2ccccc2O)n1,> 120
2,CC(C)(CO)CNC1=NC(=O)/C(=C/c2csc(-c3ccc(F)cc3O)n2)S1,45.6
3,O=C1N=C(N[C@H]2CCC[C@@H]2CO)S/C1=C\c1csc(-c2cccc(F)c2O)n1 (stereo in doubt),22.1
4,O=C1N=C(NCC2(CO)CC2)S/C1=C\c1csc(-c2ccccc2O)n1,28.9
5,CC(C)(CO)CNC1=NC(=O)/C(=C/c2csc(-c3cccc(F)c3O)n2)S1,44.4
6,CC(C)(CO)CNC1=NC(=O)/C(=C/c2csc(-c3cccc(OC(F)(F)F)c3O)n2)S1,84.2
